Assay results published in patent publication US10865207B2, “Compounds for imaging Tau protein aggregates” (AC IMMUNE S.A., priority 2016, dated 2020).
pIC50: −log10 of the molar value. Entries after “also recorded” stand apart in the source; their conditions may differ. Marks after values point to notes of the source that are not given here. Blank lines part the entries; values can stand above or below the compound they belong to.

Experiments:
[1] = target: amyloid-beta (Homo sapiens, UniProt P05067); test: Competition binding to amyloid-beta in AD brain homogenate; conditions: for pIC50: fluorine-19 derivatives
Protocol: 20 μg of human Alzheimer disease brain homogenate was incubated with a dilution series of each test compound (1000 to 0.06 nM) in the presence of 800 Bq of ^18F-labeled beta-amyloid binder. The samples were shaken at 110 rpm for 45 min at 37° C. Samples were then filtered through GF/B 96 well filter plates and washed twice with 300 μL assay buffer (PBS containing 0.1% BSA and 2% DMSO). Thereafter, filter plates were sealed and a Fuji Film Imaging Plate (BAS-SR2025) was placed on top. The imaging plate was analyzed after overnight exposition using a Fuji Film BAS-5000. Non-specific signal was determined with samples containing ^18F-labeled beta-amyloid binder in the presence of assay buffer without brain substrate and competitor. […] The unblocked ^18F-labeled beta-amyloid binder signal was defined as total binding. IC50 values were calculated by Prism V6 (GraphPad) setting total binding to 100%.

[2] = PK studies in healthy mice (dynamic PET); assay type: in vivo, NMRI mice; design: Good brain uptake (grade) / Mouse PK Uptake (grade): key: −: poor; ∘: moderate; +: good; ++: very good; +++: excellent; on Fast washout from healthy brain (grade): key: −: poor; ∘: moderate; +: good; ++: very good; +++: excellent; on Good brain uptake (grade): key: −: poor; ∘: moderate; +: good; ++: very good; +++: excellent; on Mouse PK De-fluorination (grade): key: −: poor; ∘: moderate; +: good; ++: very good; +++: excellent; on Mouse PK Washout (grade): key: −: poor; ∘: moderate; +: good; ++: very good; +++: excellent
Protocol: NMRI mice (weight range 25-35 g) were injected intravenously with the ^18F-labeled compounds. Up to 150 μL of 1×PBS solution with 10%-15% EtOH or dilution medium ([…]) containing the ^18F-labeled compound (2-10 MBq) were injected. Anesthesia with isoflurane was induced before injection of the tracer and maintained during the image acquisition period. PET scans were performed using a SIEMENS INVEON small animal PET/CT scanner (Siemens, Knoxville, Tenn.). PET acquisition was started immediately before the radioactive dose was injected into the animal through the tail vein. Images were generated as dynamic scans for 60 minutes.
The peak uptake in the brain was set to 100% and washout curves were generated to evaluate the clearance of the activity from the normal brain (FIG. 2).

[3] = system: Tau pathology; test: Human imaging study (PET in AD subjects and non-demented controls); assay type: in vivo
Protocol: In a clinical trial, subjects with AD as well as non-demented controls (NDC) underwent dynamic PET imaging for over 3 h following 370 MBq bolus injection of ^18F-4.

[4] = system: Tau in AD brain sections; test: Autoradiography on human AD brain slices; assay type: binding
Protocol: (§1) 18 micron thick frozen human brain slices and 6 micron thick human FFPE brain slices were examined via autoradiography. Brain sections were equilibrated for at least 1 h in 1×PBS solution prior to use in the experiment. Each brain section was covered with a solution of the ^18F-labeled tracer (200 Bq/μl, 500 μl) in 1×PBS. For blocking experiments with the corresponding ^19F-compound, an excess of the blocking compound (10 μM) was mixed with the ^18F-compound. The brain sections were allowed to incubate with the tracer solution at room temperature for 1 h, drained afterwards and placed in a slide holder. The slides were then washed sequentially with 1×PBS for 1 min; 70% EtOH in 1×PBS for 2 min; 30% EtOH in 1×PBS for 2 min; and 1×PBS for 1 min. The slides were allowed to air-dry before being placed on Fuji imaging plates […] for overnight exposure. The imaging plates were scanned and the signal was measured using Fuji software to produce an autoradiographic image of the brain section.

[5] = system: Tau (AD brain homogenate vs healthy control brain homogenate); test: Tracer signal-to-noise ratio, AD brain homogenate vs healthy control brain homogenate; assay type: binding, human; design: High signal to noise (grade), AD brain / HC brain homogenate / High signal to noise (further homogenates) (grade): key to the marks not given beside the values
[6] = Autoradiography on healthy control (HC) human brain slices; assay type: binding
Protocol: as §1

[7] = target: T1, Tau in PiD brain sections (Homo sapiens, UniProt P10636); test: Autoradiography on human PiD brain slices; assay type: binding
T1 construct: frozen human brain slices; from tissue; host or cells: human PiD brain slices
Protocol: as §1

[8] = system: Tau (AD brain vs mouse brain homogenate); test: Tracer signal ratio, AD brain vs mouse brain homogenate; assay type: binding, human; design: High signal to noise (grade), AD brain / mouse brain homogenate: key: −: poor; ∘: moderate; +: good; ++: very good; +++: excellent
[9] = target: T2, Tau in PSP brain sections (Homo sapiens, UniProt P10636); test: Autoradiography on human PSP brain slices; assay type: binding
T2 construct: frozen human brain slices; from tissue; host or cells: human PSP brain slices
Protocol: as §1

[10] = further AD brain homogenate vs HC brain homogenate

amyloid-beta, sequence (P05067 whole entry): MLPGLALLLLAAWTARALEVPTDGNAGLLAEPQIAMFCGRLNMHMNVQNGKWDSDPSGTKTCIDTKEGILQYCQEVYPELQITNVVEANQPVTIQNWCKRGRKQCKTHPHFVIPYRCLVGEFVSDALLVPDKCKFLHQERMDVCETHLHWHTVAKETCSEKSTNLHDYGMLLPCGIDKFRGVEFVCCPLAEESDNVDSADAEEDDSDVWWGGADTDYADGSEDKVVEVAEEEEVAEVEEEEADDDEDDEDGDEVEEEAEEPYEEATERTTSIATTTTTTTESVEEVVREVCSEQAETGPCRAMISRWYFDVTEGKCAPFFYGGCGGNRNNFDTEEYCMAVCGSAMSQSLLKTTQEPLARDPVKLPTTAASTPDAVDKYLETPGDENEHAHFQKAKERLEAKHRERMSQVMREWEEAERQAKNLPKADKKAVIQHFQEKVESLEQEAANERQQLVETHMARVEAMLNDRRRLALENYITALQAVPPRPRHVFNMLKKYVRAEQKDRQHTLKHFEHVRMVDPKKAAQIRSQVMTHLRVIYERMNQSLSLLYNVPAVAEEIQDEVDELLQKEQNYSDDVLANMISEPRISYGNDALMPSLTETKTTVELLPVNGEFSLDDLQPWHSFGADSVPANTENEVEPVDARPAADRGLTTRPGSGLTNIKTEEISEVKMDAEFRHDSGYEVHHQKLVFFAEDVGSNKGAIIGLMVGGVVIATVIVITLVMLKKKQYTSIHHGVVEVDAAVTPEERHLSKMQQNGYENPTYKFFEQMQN
T1 sequence (P10636 1-410 isoform P10636-5): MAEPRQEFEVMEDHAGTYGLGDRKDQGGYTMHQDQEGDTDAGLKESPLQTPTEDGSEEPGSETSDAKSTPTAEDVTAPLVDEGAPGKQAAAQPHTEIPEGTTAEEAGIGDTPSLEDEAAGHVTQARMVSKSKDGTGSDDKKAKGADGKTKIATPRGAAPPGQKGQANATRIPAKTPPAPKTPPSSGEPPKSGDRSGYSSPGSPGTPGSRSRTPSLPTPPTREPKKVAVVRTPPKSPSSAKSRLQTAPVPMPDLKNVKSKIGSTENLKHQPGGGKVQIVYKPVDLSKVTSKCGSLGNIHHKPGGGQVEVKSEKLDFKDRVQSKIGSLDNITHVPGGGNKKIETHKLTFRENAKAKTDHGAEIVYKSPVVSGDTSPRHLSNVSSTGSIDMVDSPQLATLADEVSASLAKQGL
T2 sequence (P10636 1-441 isoform P10636-8): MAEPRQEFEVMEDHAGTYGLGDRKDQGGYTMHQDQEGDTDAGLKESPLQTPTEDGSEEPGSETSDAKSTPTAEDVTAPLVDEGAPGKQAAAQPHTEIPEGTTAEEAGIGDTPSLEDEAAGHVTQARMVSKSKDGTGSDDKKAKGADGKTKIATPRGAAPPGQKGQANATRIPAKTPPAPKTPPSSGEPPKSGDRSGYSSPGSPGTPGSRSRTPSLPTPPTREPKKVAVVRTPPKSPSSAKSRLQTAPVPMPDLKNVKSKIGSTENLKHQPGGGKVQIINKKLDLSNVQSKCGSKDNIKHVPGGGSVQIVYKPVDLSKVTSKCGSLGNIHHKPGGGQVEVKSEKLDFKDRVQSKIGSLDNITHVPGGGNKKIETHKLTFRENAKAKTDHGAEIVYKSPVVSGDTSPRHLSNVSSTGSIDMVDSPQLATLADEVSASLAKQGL

pIC50 [1]: < 6.00
Mouse PK De-fluorination (grade) ([2]; Table 2): +++
Mouse PK Uptake (grade) ([2]; Table 2): ++
Mouse PK Washout (grade) ([2]; Table 2): ++
bone uptake in shoulder joint at 60 min (de-fluorination) ([2]; healthy mice, after iv injection): (<0.5% ID/g) ^f
peak uptake in brain (tracer uptake in healthy mice after iv injection) ([2]; healthy mice, iv, PET): (5.8% ID/g)
ratio of uptake peak/30 min (washout from healthy brain) ([2]; healthy mice, Table 1: ratio of uptake at 2 min and 30 min): (22)
Compound: Fc1ncccc1-c1ccc2c(n1)[nH]c1ccncc12 [Compound F-4]

Low affinity to amyloid-beta (grade) ([1]; Table 1): +++^a)
pIC50 [1]: < 6.00
brain uptake in human subjects (in words) ([3]; 370 MBq bolus, dynamic PET): good brain uptake
washout from non-target brain regions in human subjects (in words) ([3]; 370 MBq bolus, dynamic PET): fast washout
Binding to AD brain (Braak stage 1/3) by autoradiography (grade) ([4]; in house data): +++^a)
Binding to AD brain (Braak stage 5/6) by autoradiography (grade) ([4]; in house data): +++^a)
Fast washout from healthy brain (grade) ([2]; Table 1): +++
Good brain uptake (grade) ([2]; Table 1): ++
Low or minor de-fluorination (grade) ([2]; Table 1): +++
Low retention in healthy brain (grade) ([2]; Table 1): +++
fold faster washout from healthy brain than compound 18F-1 ([2]; mice): 3.2 fold
fold faster washout from healthy brain than compound 18F-2 ([2]; mice): 2.0 fold
fold less long-term retention in healthy brain than compound 18F-1 ([2]; mice): 4 fold
fold less long-term retention in healthy brain than compound 18F-2 ([2]; mice): 3 fold
De-fluorination in mice (in words) ([2]; mouse, in vivo): No de-fluorination
Autoradiography signal in PiD brain sections (in words) [7]: strong signal
Binding to PiD brain slices by autoradiography (grade) ([7]; in house data): +++^a)
Autoradiography signal in PSP brain sections (in words) [9]: strong signal
Binding to PSP brain slices by autoradiography (grade) ([9]; in house data): +++^a)
Compound: [18F]c1ncccc1-c1ccc2c(n1)[nH]c1ccncc12 [Compound ^18F-4]
uptake in AD subjects (in words) ([3]; AD subjects): focal asymmetric uptake was evident in temporal, parietal and frontal lobes
uptake in choroid plexus, basal ganglia, striatum, amygdala, meninges in non-demented controls (in words) ([3]; NDC subjects): no increased uptake
Autoradiography signal in AD brain sections (in words) ([4]; blockable with excess cold compound): strong punctated staining; also recorded: Specific binding
fold higher signal to noise ratio than 18F-1 ([5]; AD vs HC brain homogenate): 7.7 fold
High signal to noise (further homogenates) (grade) ([5]; Table 1): +++
High signal to noise (grade), AD brain / HC brain homogenate ([5]; Table 1): +++
fold higher signal to noise ratio than 18F-1 [5, 10]: 7.2-11 fold
fold higher signal to noise ratio than 18F-2 [5, 10]: 3.7-4.0 fold
Autoradiography signal in healthy control (HC) sections (in words) [6]: no specific signal was visible
Ratio of tracer signal AD brain / signal in mouse brain homogenate ([8]; 18F tracer): 15.1^a)
fold higher signal to noise ratio than 18F-1 ([8]; AD brain homogenate vs whole mouse brain homogenate): 6.9 fold
High signal to noise (grade), AD brain / mouse brain homogenate ([8]; Table 1): +++
